# According to ChEMBL document CHEMBL1159025, “A Novel Hydrolyzable Tannin and Related Compounds Isolated from the Leaf Surface of Chrysolepis sempervirens” (1992):
# The source made the active and inactive calls. The rule behind the calls is not given here.
# How the values were obtained:
# [1] = test system: Staphylococcus aureus; assay: Antimicrobial activity against Staphylococcus aureus ATCC 6538 at 1000 ug/ml by macro-dilution broth culture method; type: functional, organism-based
# [2] = test system: Candida albicans; assay: Antimicrobial activity against Candida albicans ATCC 18804 at 1000 ug/ml by macro-dilution broth culture method; type: functional, organism-based
# [3] = test system: Pseudomonas aeruginosa; assay: Antimicrobial activity against Pseudomonas aeruginosa ATCC 25619 at 1000 ug/ml by macro-dilution broth culture method; type: functional, organism-based
# [4] = test system: HeLa; assay: Cytotoxicity against human HeLa cells at 100 ug/ml; type: functional
Structure (SMILES),Activity [1],Activity [2],Activity [3],Activity [4] [%]
O=C1OC[C@H]2OC(=O)c3cc(O)c(O)c(O)c3-c3c(O)c(O)c(O)c4c3C(=O)O[C@H]([C@H]3OC(=O)c5c-4c(O)c(O)c(O)c5[C@H]3O)[C@@H]2OC(=O)c2cc(O)c(O)c(O)c2-c2c1cc(O)c(O)c2O [CASTALAGIN],inactive,inactive,inactive,70
O=C1OC[C@H]2OC(=O)c3cc(O)c(O)c(O)c3-c3c(O)c(O)c(O)c4c3C(=O)O[C@H]([C@@H](O)[C@@H](O)c3c(O)c(O)c(O)c-4c3C(=O)O)[C@@H]2OC(=O)c2cc(O)c(O)c(O)c2-c2c1cc(O)c(O)c2O [CHINQUAPINIC ACID],inactive,inactive,inactive,70
O=C1OCC2OC(=O)c3cc(O)c(O)c(O)c3-c3c(O)c(O)c(O)c4c3C(=O)OC(C2OC(=O)c2cc(O)c(O)c(O)c2-c2c1cc(O)c(O)c2O)C1OC(=O)c2c-4c(O)c(O)c(O)c2C1O (configuration not stated) [VESCALAGIN],inactive,inactive,inactive,70
